Test system: FGFR3 enzyme
Assay: FGFR Enzymatic Assay (FRET peptide phosphorylation), FGFR3
Assay type: biochemical
Conditions: IC50 ratio showing FGFR3 selectivity; Table 2A, pre-incubated for 4 hours
Procedure: The inhibitor potency of the exemplified compounds was measured in an enzyme assay that measures peptide phosphorylation using FRET measurements to detect product formation. Inhibitors were serially diluted in DMSO and a volume of 0.5 μL was transferred to the wells of a 384-well plate.
GraphPad prism3 was used to analyze the data.

Structure (SMILES) | FGFR1/FGFR3 | FGFR4/FGFR3
COc1cc(OC)c(F)c(N2Cc3cnc(-c4cn(C)nc4C)cc3N(c3cccc(F)c3)C2=O)c1F [Example 99, 3-(2,6-difluoro-3,5-dimethoxyphenyl)-7-(1,3-dimethyl-1H-pyrazol-4-yl)-1-(3-fluorophenyl)-3,4-dihydropyrido[4,3-d]pyrimidin-2(1H)-one] | >5 | >5
CCN1C(=O)N(c2c(F)c(OC)cc(OC)c2F)Cc2cnc(-c3cn(CC)nc3C)cc21 [Example 168, 3-(2,6-difluoro-3,5-dimethoxyphenyl)-1-ethyl-7-(1-ethyl-3-methyl-1H-pyrazol-4-yl)-3,4-dihydropyrido[4,3-d]pyrimidin-2(1H)-one] | >5 | >3
CCN1C(=O)N(c2c(F)c(OC)cc(OC)c2F)Cc2cnc(-c3ccc(C(=O)NC4CC4)nc3)cc21 [Example 176, N-cyclopropyl-5-(3-(2,6-difluoro-3,5-dimethoxyphenyl)-1-ethyl-2-oxo-1,2,3,4-tetrahydropyrido[4,3-d]pyrimidin-7-yl)picolinamide] | >10 | >5
CCN1C(=O)N(c2c(F)c(OC)cc(OC)c2F)Cc2cnc(-c3cccnc3)cc21 [Example 23, 3-(2,6-difluoro-3,5-dimethoxyphenyl)-1-ethyl-7-(pyridin-3-yl)-3,4-dihydropyrido[4,3-d]pyrimidin-2(1H)-one] | >5 | 
CCN1C(=O)N(c2c(F)c(OC)cc(OC)c2F)Cc2cnc(-c3ccccc3)cc21 [Example 22, 3-(2,6-difluoro-3,5-dimethoxyphenyl)-1-ethyl-7-phenyl-3,4-dihydropyrido[4,3-d]pyrimidin-2(1H)-one] | >5 | 
COc1cc(OC)c(F)c(N2Cc3cnc(-c4cn(C)nc4C)cc3N(c3ccnnc3)C2=O)c1F [Example 57, 3-(2,6-difluoro-3,5-dimethoxyphenyl)-7-(1,3-dimethyl-1H-pyrazol-4-yl)-1-(pyridazin-4-yl)-3,4-dihydropyrido[4,3-d]pyrimidin-2(1H)-one] | >10 | >10
COc1cc(OC)c(F)c(N2Cc3cnc(-c4cn(C)nc4C)cc3N(c3ccc(CC#N)cc3)C2=O)c1F [Example 97, 2-(4-(3-(2,6-difluoro-3,5-dimethoxyphenyl)-7-(1,3-dimethyl-1H-pyrazol-4-yl)-2-oxo-3,4-dihydropyrido[4,3-d]pyrimidin-1(2H)-yl)phenyl)acetonitrile] | >5 | >10
COc1cc(OC)c(F)c(N2Cc3cnc(-c4cn(C5CCS(=O)(=O)C5)nc4C)cc3C3(CC3)C2=O)c1F (centres unmarked) [Example 54, 2′-(2,6-difluoro-3,5-dimethoxyphenyl)-6′-[1-(1,1-dioxidotetrahydro-3-thienyl)-3-methyl-1H-pyrazol-4-yl]-1′,2′-dihydro-3′H-spiro[cyclopropane-1,4′-[2,7]naphthyridin]-3′-one] | >5 | >1
COc1cc(OC)c(F)c(N2Cc3cnc(-c4cn(C)nc4C)cc3N(c3ccc(C#N)cc3)C2=O)c1F [Example 44, 4-(3-(2,6-difluoro-3,5-dimethoxyphenyl)-7-(1,3-dimethyl-1H-pyrazol-4-yl)-2-oxo-3,4-dihydropyrido[4,3-d]pyrimidin-1 (2H)-yl)benzonitrile] | >10 | >10
COc1cc(OC)c(F)c(N2Cc3cnc(-c4cn(C)nc4C)cc3N(CC3CCOCC3)C2=O)c1F [Example 37, 3-(2,6-difluoro-3,5-dimethoxyphenyl)-7-(1,3-dimethyl-1H-pyrazol-4-yl)-1-((tetrahydro-2H-pyran-4-yl)methyl)-3,4-dihydropyrido[4,3-d]pyrimidin-2(1H)-one] | >1 | >10
COc1cc(OC)c(F)c(N2Cc3cnc(-c4cn(C)nc4C)cc3N(Cc3ccc4c(c3)OCCO4)C2=O)c1F [Example 38, 3-(2,6-difluoro-3,5-dimethoxyphenyl)-1-((2,3-dihydrobenzo[b][1,4]dioxin-6-yl)methyl)-7-(1,3-dimethyl-1H-pyrazol-4-yl)-3,4-dihydropyrido[4,3-d]pyrimidin-2(1H)-one] | >5 | >5
COc1cc(OC)c(F)c(N2Cc3cnc(-c4cn(C)nc4C)cc3N(Cc3cnn(C4CC4)c3)C2=O)c1F [Example 124, 1-((1-cyclopropyl-1H-pyrazol-4-yl)methyl)-3-(2,6-difluoro-3,5-dimethoxyphenyl)-7-(1,3-dimethyl-1H-pyrazol-4-yl)-3,4-dihydropyrido[4,3-d]pyrimidin-2(1H)-one] | >10 | >10
COc1cc(OC)c(F)c(N2Cc3cnc(-c4cn(CC(=O)N5CCOCC5)nc4C)cc3C3(CC3)C2=O)c1F [Example 159, 2′-(2,6-difluoro-3,5-dimethoxyphenyl)-6′-(3-methyl-1-(2-morpholino-2-oxoethyl)-1H-pyrazol-4-yl)-1′H-spiro[cyclopropane-1,4′-[2,7]naphthyridin]-3′(2′H)-one] | >5 | >3
CCN1C(=O)N(c2c(F)c(OC)cc(OC)c2F)Cc2cnc(-c3ccc(C4(C#N)CCC4)cc3)cc21 [Example 181, 1-(4-(3-(2,6-difluoro-3,5-dimethoxyphenyl)-1-ethyl-2-oxo-1,2,3,4-tetrahydropyrido[4,3-d]pyrimidin-7-yl)phenyl)cyclobutanecarbonitrile] | >5 | >10
CCc1nnc(CN2C(=O)N(c3c(F)c(OC)cc(OC)c3F)Cc3cnc(-c4cn(C)nc4C)cc32)o1 [Example 67, 3-(2,6-difluoro-3,5-dimethoxyphenyl)-7-(1,3-dimethyl-1H-pyrazol-4-yl)-1-((5-ethyl-1,3,4-oxadiazol-2-yl)methyl)-3,4-dihydropyrido[4,3-d]pyrimidin-2(1H)-one] | >5 | >10
COc1cc(OC)c(F)c(N2Cc3cnc(-c4cn(C)nc4C)cc3N(c3cncnc3)C2=O)c1F [Example 61, 3-(2,6-difluoro-3,5-dimethoxyphenyl)-7-(1,3-dimethyl-1H-pyrazol-4-yl)-1-(pyrimidin-5-yl)-3,4-dihydropyrido[4,3-d]pyrimidin-2(1H)-one] | >10 | >5
CCN1C(=O)N(c2c(F)c(OC)cc(OC)c2F)Cc2cnc(-c3cn(CCN4CCOCC4)nc3C)cc21 [Example 49, 3-(2,6-difluoro-3,5-dimethoxyphenyl)-1-ethyl-7-(3-methyl-1-(2-morpholinoethyl)-1H-pyrazol-4-yl)-3,4-dihydropyrido[4,3-d]pyrimidin-2(1H)-one] | >5 | >1
CCN1C(=O)N(c2c(F)c(OC)cc(OC)c2F)Cc2cnc(-c3ccc(C(=O)NCCO)nc3)cc21 [Example 177, 5-(3-(2,6-difluoro-3,5-dimethoxyphenyl)-1-ethyl-2-oxo-1,2,3,4-tetrahydropyrido[4,3-d]pyrimidin-7-yl)-N-(2-hydroxyethyl)picolinamide] | >5 | >10
CCNC(=O)c1ccc(-c2cc3c(cn2)CN(c2c(F)c(OC)cc(OC)c2F)C(=O)N3CC)cn1 [Example 175, 5-(3-(2,6-difluoro-3,5-dimethoxyphenyl)-1-ethyl-2-oxo-1,2,3,4-tetrahydropyrido[4,3-d]pyrimidin-7-yl)-N-ethylpicolinamide] | >10 | >5
COc1cc(OC)c(F)c(N2Cc3cnc(-c4cn(C)nc4C)cc3N(c3ccc(C#N)cn3)C2=O)c1F [Example 79, 6-(3-(2,6-difluoro-3,5-dimethoxyphenyl)-7-(1,3-dimethyl-1H-pyrazol-4-yl)-2-oxo-3,4-dihydropyrido[4,3-d]pyrimidin-1(2H)-yl)nicotinonitrile] | >5 | >3
COc1cc(OC)c(F)c(N2Cc3cnc(-c4ccc(C5(C#N)CCC5)nc4)cc3N(Cc3nnc(C)o3)C2=O)c1F [Example 187, 1-(5-{3-(2,6-difluoro-3,5-dimethoxyphenyl)-1-[(5-methyl-1,3,4-oxadiazol-2-yl)methyl]-2-oxo-1,2,3,4-tetrahydropyrido[4,3-d]pyrimidin-7-yl}pyridin-2-yl)cyclobutanecarbonitrile] | >10 | >10
COc1ccc(N2C(=O)N(c3c(F)c(OC)cc(OC)c3F)Cc3cnc(-c4cn(C)nc4C)cc32)cc1 [Example 104, 3-(2,6-difluoro-3,5-dimethoxyphenyl)-7-(1,3-dimethyl-1H-pyrazol-4-yl)-1-(4-methoxyphenyl)-3,4-dihydropyrido[4,3-d]pyrimidin-2(1H)-one] | >3 | >5
COc1cc(OC)c(F)c(N2Cc3cnc(-c4cnn(CC5CN(C(C)=O)C5)c4)cc3C3(CC3)C2=O)c1F [Example 167, 6′-(1-((1-acetylazetidin-3-yl)methyl)-1H-pyrazol-4-yl)-2′-(2,6-difluoro-3,5-dimethoxyphenyl)-1′H-spiro[cyclopropane-1,4′-[2,7]naphthyridin]-3′(2′H)-one] | >3 | >3
COc1cc(OC)c(F)c(N2Cc3cnc(-c4ccc(C5(C#N)CCC5)nc4)cc3N(c3ccncn3)C2=O)c1F [Example 135, 1-(5-(3-(2,6-difluoro-3,5-dimethoxyphenyl)-2-oxo-1-(pyrimidin-4-yl)-1,2,3,4-tetrahydropyrido[4,3-d]pyrimidin-7-yl)pyridin-2-yl)cyclobutanecarbonitrile] | >5 | >10
COc1cc(OC)c(F)c(N2Cc3cnc(-c4csc(N(C)C)n4)cc3C3(CC3)C2=O)c1F [Example 160, 2′-(2,6-difluoro-3,5-dimethoxyphenyl)-6′-(2-(dimethylamino)thiazol-4-yl)-1′H-spiro[cyclopropane-1,4′-[2,7]naphthyridin]-3′(2′H)-one] | >5 | >5
COc1cc(OC)c(F)c(N2Cc3cnc(-c4ccc(C5(C#N)CCC5)nc4)cc3N(c3cnn(C)c3)C2=O)c1F [Example 188, 1-{5-[3-(2,6-difluoro-3,5-dimethoxyphenyl)-1-(1-methyl-1H-pyrazol-4-yl)-2-oxo-1,2,3,4-tetrahydropyrido[4,3-d]pyrimidin-7-yl]pyridin-2-yl}cyclobutanecarbonitrile] | >5 | >5

Reference: US11173162B2, “Bicyclic heterocycles as FGFR4 inhibitors” (Incyte Corporation, priority 2015, dated 2021)
